This is an account of results in US20050171094A1, “Pyrrolopyrimidine derivatives” (priority 2002, published 2005).

The IC50 is the concentration needed to halve the response being measured.

This experiment concerns the target recombinant human GSK-3β (Homo sapiens, UniProt P49841). Nature of the experiment: Determination of inhibition of GSK-3 enzyme activity. In kind it is biochemical. The note with it: read-out: GSK-3 enzyme-inhibiting activity (IC50 value). As to the method: Determination of Inhibition of GSK-3 Enzyme Activity
To five μl of a test compound in 5% DMSO as a solvent, 25 μl of phospho-glycogen synthase peptide-2 substrate solution [6 μm phospho-glycogen synthase peptide-2, 20 μm ATP, 16 mM MOPS buffer, pH 7.0, 0.2 mM EDTA, 20 mM magnesium acetate, 0.1 μl [γ-^33P]ATP (specific activity: about 110 TBq/mmol)] was added, and 20 μl of a GSK-3β enzyme solution [10 mU recombinant human GSK-3β, 20 mM MOPS buffer, pH 7.0, 1 mM EDTA, 0.1% polyoxyethylenelauryl ether (23 Lauryl Ether; Brij 35), 5% glycerol, 0.1% β-mercaptoethanol] was further added to initiate the reaction. After reacting at room temperature for 20 minutes, an equal amount of 200 mM phosphate solution was added to stop the reaction. 90 μl of the reaction product was allowed to adsorb to the MultiScreen PH plate (Millipore), and washed with 100 mM phosphate solution. After drying said plate, 30 μl of MicroScint-O (Packard Bioscience) was added, and cpm was measured by a scintilation counter to examine the inhibition activity. As used herein, Phospho GS Peptide 2 means […]P)-Glu-Asp-Glu-Glu-Glu (SEQ ID NO: 1).

Read-outs that look alike come from different tables or passages of the source.

Chain of recombinant human GSK-3β (P49841 whole entry): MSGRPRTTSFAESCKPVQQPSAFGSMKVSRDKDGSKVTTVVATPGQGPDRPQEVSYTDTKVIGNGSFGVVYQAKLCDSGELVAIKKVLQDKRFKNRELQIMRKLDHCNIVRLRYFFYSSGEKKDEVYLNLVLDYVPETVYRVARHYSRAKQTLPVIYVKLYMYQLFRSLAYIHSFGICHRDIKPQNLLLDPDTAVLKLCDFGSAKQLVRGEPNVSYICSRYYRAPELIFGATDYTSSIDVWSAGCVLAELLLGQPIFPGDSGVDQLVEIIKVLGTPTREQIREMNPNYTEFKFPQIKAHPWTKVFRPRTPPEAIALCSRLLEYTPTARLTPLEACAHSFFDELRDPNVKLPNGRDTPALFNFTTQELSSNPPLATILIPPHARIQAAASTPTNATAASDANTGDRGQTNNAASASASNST

For `Cc1ccc(NC(=O)N2CCc3c(C#N)c4nc[nH]c(=O)c4n3CC2)cc1` [Compound No. 161, (11-cyano-4-oxo(3-hydro-6H,7H,9H,10H-1,4-diazaperhydroepino[4′,5′-1,5]pyrrolo[3,2-d]pyrimidine-8-yl))-N-(4-methylphenyl)carboxamide], the IC50 (IC50 class given in μM) lay in the range of 1 to 10 µM.

Consider `N#Cc1c2n(c3c(=S)[nH]cnc13)CCN(C(=O)Nc1cccc(C(=O)O)c1)CC2` [Compound No. 792, 3-[(11-cyano-4-thioxo-3-hydro-6H,7H,9H,10H-1,4-diazaperhydroepino[4′,5′-1,5]pyrrolo[3,2-d]pyrimidine-8-yl)carbonylamino]benzoic Acid], for which the IC50 (phospho-glycogen synthase peptide-2 substrate, [γ-33P]ATP, IC50 class printed in nM) is under 0.05 µM. `Cc1ccc(C(=O)N2CCc3c(C#N)c4nc[nH]c(=O)c4n3CC2)cc1` [Compound No. 50, 8-[(4-methylphenyl)carbonyl]4-oxo-3-hydro-6H,7H,9H,10H-1,4-diazaperhydroepino[1′,7′-5,1]pyrrolo[3,2-d]pyrimidine-11-carbonitrile]: the IC50 (IC50 class given in μM) is 1 to 10 µM. For `N#Cc1c2n(c3c(=S)[nH]cnc13)CCN(S(=O)(=O)c1ccccc1)CC2` [Compound No. 410, 8-(phenylsulfonyl)-4-thioxo-3-hydro-6H,7H,9H,10H-1,4-diazaperhydroepino[1′,7′-5,1]pyrrolo[3,2-d]pyrimidine-11-carbonitrile], the IC50 (IC50 class given in μM) was 1 to 10 µM. As to `N#Cc1c2n(c3c(=S)[nH]cnc13)CCN(Cc1ccccc1)c1ccccc1-2` [Compound No. 1799, 5-benzyl-9-thioxo-10-hydro-6H,7H-benzo[f]pyrimidino[5′,4′-2,3]pyrrolo[1,5-d]1,4-diazepine-13-carbonitrile], under “IC50 class given in μM”, the IC50 was 1 to 10 µM.
